Measurements published in paper PMC6287892, “Design, Synthesis, and Biological Evaluation of 3-(Imidazo[1,2-a]pyrazin-3-ylethynyl)-4-isopropyl-N-(3-((4-methylpiperazin-1-yl)methyl)-5-(trifluoromethyl)phenyl)benzamide as a Dual Inhibitor of Discoidin Domain Receptors 1 and 2” (Journal of Medicinal Chemistry, 2018).

Legend:
[1] = Pharmacokinetic parameters in rats; assay type: in vivo; details: SD rats
Experimental: Male SD rats weighing 180–220 g (Southern China Medical University) were utilized for the studies. The protocol was approved by the Animal Care and Use Committee, GIBH. Animals were given standard animal chow and water ad libitum in a climate-controlled room (23 ± 1 °C, 30–70% relative humidity, a minimum of 10 exchanges of room air per hour, and a 12 h light–dark cycle) for 1 week prior to experiments. The compound was dissolved in a solution containing 2% DMSO, 4% ethanol, 4% castor oil, and 90% ddH2O. The pharmacokinetic properties of the SD rats (male) were determined following iv and oral administration. Animals were randomly distributed into two experimental groups (n = 3). […] After single administration, whole blood samples (100–200 μL) were obtained from the orbital venous plexus at the following time points after dosing: 5, 10, and 30 min and 1, 2, 3, 4, 6, 8, 11, and 24 h (po) or 2, 10, and 30 min and 1, 2, 3, 4, 6, 8, 11, and 24 h (iv). Whole blood samples were collected in heparinized tubes. The plasma fraction was immediately separated by centrifugation (8000 rpm, 6 min, 4 °C) and stored at −20 °C until LC-MS analysis. The rats were humanely euthanasia by carbon dioxide 24 h after the experiment without pain. The pharmacokinetics parameters were calculated by analyzing the compound concentrations in plasma samples using the pharmacokinetic software DAS.2.0.

Male C57BL/6 mice = assay: Acute-toxicity assay in mice; assay type: in vivo; details: 200 or 400 mg/kg by gavage
Experimental: Male C57BL/6 mice weighing 18–20 g were randomly divided into three groups (n = 5 per group). Mice were gavage-administered 200 μL of the drug (at 200 or 400 mg/kg in physiological saline). Mice in the control group received 200 μL of physiological saline. After drug administration, body-weight changes were recorded for 7 days.

[2] = male, rat, plasma, iv (4 mg/kg)
[3] = male, rat, plasma, oral (20 mg/kg)

CC(C)c1ccc(C(=O)Nc2cc(CN3CCN(C)CC3)cc(C(F)(F)F)c2)cc1C#Cc1cnc2cnccn12 [Compound 5n, 3-(Imidazo[1,2-a]pyrazin-3-ylethynyl)-4-isopropyl-N-(3-((4-methylpiperazin-1-yl)methyl)-5-(trifluoromethyl)phenyl)benzamide]
BA ([1]; oral (20 mg/kg) vs iv (4 mg/kg)): 8.06%
AUC(0-inf) [1, 2]: 798 ± 121 ng·h/mL
Cmax [1, 2]: 1180 ± 150 ng/mL
half-life [1, 2]: 2.12 ± 0.25 h
clearance ([1]; male, rat, plasma, iv (4 mg/kg), read-out: CLz (converted)): 85 mL/min/kg
AUC(0-inf) [1, 3]: 322 ± 106 ng·h/mL
Cmax [1, 3]: 48.7 ± 18.2 ng/mL
Tmax [1, 3]: 1.5 ± 1.3 h
half-life [1, 3]: 2.08 ± 0.66 h
tolerability (Male C57BL/6 mice): well-tolerated
animal deaths and body-weight changes (Male C57BL/6 mice; 7 days): no animal deaths or obvious body-weight changes
